The source of these data is patent US20220193126A1, “METHODS OF TREATING IMBALANCE OF PLASMA LIPIDS LEVEL AND FATTY LIVER WITH M2C MACROPHAGES” (National Pingtung University of Science and Technology, priority 2020, published 2022).

Assay [1] deals with bone marrow derived macrophages (BMDM). Briefly: Induction of M2C macrophage polarization by baicalin (morphology, microscope images). It is filed as cell-based, mice (C57BL/6J). To be noted: 50 μM Baicalin for 24 hours, vs placebo-treated group (M-CSF) spindle shape. The protocol:
The bone marrow was flushed out from the femurs of mice (C57BL/6J, 8-week-old to 20-week-old, from National Laboratory Animal Center in Taipei, Taiwan) with phosphate-buffered saline (PBS) containing BSA 0.5%. The peripheral blood or bone marrow flushing fluid were layered with Ficoll-Hypaque (GE Healthcare, Uppsala, Sweden) and centrifuged at 400×g for 40 minutes at 18° C. to isolate the mononuclear cell of peripheral blood and bone marrow. The interphase layer containing mononuclear cell was washed with PBS and centrifuged for 10 minutes at 100×g, 18° C. twice. Plate mononuclear cells in dish culture with RPM 1640 supplemented with 10% FBS (fetal bovine serum) and 50 ng/ml recombinant mouse M-CSF (PeproTech, British) at 37° C. and 5% CO2 for 7 days to induce the mononuclear cells to differentiate into macrophage. On the next day of the 7th day of M-CSF treatment, 5×10^5 cells of bone marrow derived macrophages (BMDM) cells were plated in RPMI 1640 (10% FBS) and incubated overnight. After overnight incubation, the BMDM cells were incubated in RPMI 1640 (10% FBS) supplemented with 50 μM Baicalin for 24 hours to induce the BMDM cells to polarize into […] macrophage.

In another assay the test system is MERTK. Put plainly: Flow cytometry confirmation of MERTK expression on M2C macrophages. It is filed as cell-based, mouse. To be noted: baicalin-treated vs placebo-treated macrophages. The protocol: The bone marrow was flushed out from the femurs of mice (C57BL/6J, 8-week-old to 20-week-old, from National Laboratory Animal Center in Taipei, Taiwan) with phosphate-buffered saline (PBS) containing BSA 0.5%. The peripheral blood or bone marrow flushing fluid were layered with Ficoll-Hypaque (GE Healthcare, Uppsala, Sweden) and centrifuged at 400×g for 40 minutes at 18° C. to isolate the mononuclear cell of peripheral blood and bone marrow. The interphase layer containing mononuclear cell was washed with PBS and centrifuged for 10 minutes at 100×g, 18° C. twice. Plate mononuclear cells in dish culture with RPM 1640 supplemented with 10% FBS (fetal bovine serum) and 50 ng/ml recombinant mouse M-CSF (PeproTech, British) at 37° C. and 5% CO2 for 7 days to induce the mononuclear cells to differentiate into macrophage. On the next day of the 7th day of M-CSF treatment, 5×10^5 cells of bone marrow derived macrophages (BMDM) cells were plated in RPMI 1640 (10% FBS) and incubated overnight. […]
1×10^6 cells of the M2C macrophages induced by baicalin were analyzed by flow cytometry to confirm whether the M2C macrophages express MERTK. Fluorescence-labelled anti-mouse antibodies (Biolegend, the U.S.A.), FITC-anti-CD 11b and PE-anti-MERTK, are used in the analysis. […] After removing supernatant, the sample was dissolved in 1 ml of PBS and analyzed by flow cytometry.
Background: In flow cytometry, cells or beads pass a laser one at a time.

As for `O=C(O)[C@H]1O[C@@H](Oc2cc3oc(-c4ccccc4)cc(=O)c3c(O)c2O)[C@H](O)[C@@H](O)[C@@H]1O` [baicalin], the “morphology of the macrophages” value in assay [1] was “basically round shape”. For the same molecule, the “average MERTK expression level on single cell (mean fluorescence intensity, MFI)” value in the assay with MERTK was “significantly enhanced”.
